According to patent US9845297B2, “Antimicrobial compounds and methods of making and using the same” (Melinta Therapeutics, Inc., priority 2009, dated 2017):

system: Eschericia coli strain ATCC25922; assay: standard microdilution assay to determine minimum inhibitory concentrations (MICs); format: cell-based; details: Escherichia coli, ATCC25922, Eschericia coli strain ATCC25922, standard microdilution assay; read-out: E. coli ATCC25922 MIC
Experimental: Minimum inhibitory concentrations (MICs) are determined by the microdilution method, typically in a final volume of 100 microliters, according to protocols outlined by The Clinical and Laboratory Standards Institute [CLSI; formerly the National Committee for Clinical Laboratory Standards (NCCLS)]. See CLSI: Methods for dilution antimicrobial susceptibility tests for bacteria that grow aerobically; approved standard-fifth edition. Wayne, Pa.: NCCLS; 2000. The assays can be also be performed in microtiter trays according to conventional methodologies as published by the CLSI. See CLSI. Methods for Dilution Antimicrobial Susceptibility Tests for Bacteria That Grow Aerobically; Approved Standard-Seventh Edition. CLSI Document M7-A7 [ISBN 1-56238-587-9] CLSI, 940 West Valley Road, Suite 1400, Wayne Pa. 19087-1898 USA, 2006).
The compounds of the present invention were tested for antimicrobial activity. The compounds were run against Eschericia coli strain ATCC25922 using a standard microdilution assay to determine minimum inhibitory concentrations (MICs). […] A “N/A” means that data is unavailable. It will be recognized by one skilled in the art that the compounds can be assessed against other bacterial organisms and that the presentation of data for activity against Eschericia coli is illustrative and in no way is intended to limit the scope of the present invention. The compounds of the present invention can be assayed against a range of other microorganisms depending upon the performance activity desired to be gathered. Furthermore, the “+”, “−”, and “N/A” representation and the selection of a cutoff value of 16 micrograms/ml is also illustrative and in no way is intended to limit the scope of the present invention.

Row | Compound | MIC
1 | CN(C(=O)C[C@@H](N)CCCNC(=N)N)C1CNC(NC(N)=O)=NC1=O (stereo partly drawn) [Compound 100] | > 16 µg/mL
2 | CN(C(=O)C[C@H](CCCNC(=N)N)NC(=O)CCCN)C1CNC(NC(N)=O)=NC1=O (stereo partly drawn) [Compound 102] | > 16 µg/mL
3 | CN(C(=O)C[C@H](CCCNC(=N)N)NC(=O)CCN)C1CNC(NC(N)=O)=NC1=O (stereo partly drawn) [Compound 103] | > 16 µg/mL
4 | CN(C(=O)C[C@H](CCCNC(=N)N)NC(=O)CCO)C1CNC(NC(N)=O)=NC1=O (stereo partly drawn) [Compound 104] | > 16 µg/mL
5 | CN(C(=O)C[C@H](CCCNC(=N)N)NC(=N)N)C1CNC(NC(N)=O)=NC1=O (stereo partly drawn) [Compound 105] | > 16 µg/mL
6 | CN(C(=O)C[C@H](CCCNC(=N)N)NCCCN)C1CNC(NC(N)=O)=NC1=O (stereo partly drawn) [Compound 106] | < 16 µg/mL
7 | CN(C(=O)C[C@H](CCCNC(=N)N)NC(=O)CCNC(=N)N)C1CNC(NC(N)=O)=NC1=O (stereo partly drawn) [Compound 107] | > 16 µg/mL
8 | CN(C(=O)C[C@H](CCCNC(=N)N)NC(=O)CCN1CCNCC1)C1CNC(NC(N)=O)=NC1=O (stereo partly drawn) [Compound 108] | > 16 µg/mL
9 | CN(C(=O)C[C@H](CCCNC(=N)N)NCCCCNC(=N)N)C1CNC(NC(N)=O)=NC1=O (stereo partly drawn) [Compound 109] | < 16 µg/mL
10 | CN(C(=O)C[C@@H](N)CCCNC(=N)N)C1CNC(NC(=O)c2ccc(NC(=O)[C@@](C)(N)CO)cc2)=NC1=O (stereo partly drawn) [Compound 110] | < 16 µg/mL
11 | CN(C(=O)C[C@H](CCCNC(=N)N)NC(=O)CCc1c[nH]cn1)C1CNC(NC(N)=O)=NC1=O (stereo partly drawn) [Compound 111] | > 16 µg/mL
12 | N=C(N)NCCC[C@H](N)CC(=O)N(CCCc1cocn1)C1CNC(NC(N)=O)=NC1=O (stereo partly drawn) [Compound 112] | > 16 µg/mL
13 | NCCC[C@H](N)CCCn1cnc(N)nc1=O [Compound 113] | > 16 µg/mL
14 | N=C(N)NCCC[C@H](N)CCCn1cnc(N)nc1=O [Compound 114] | > 16 µg/mL
15 | NCCCC[C@@H](N)CCn1ccc(N)nc1=O [Compound 115] | > 16 µg/mL
16 | NCCC[C@H](N)CCCn1ccc(N)nc1=O [Compound 116] | > 16 µg/mL
17 | N=C(N)NCCC[C@H](N)CCCn1ccc(N)nc1=O [Compound 118] | > 16 µg/mL
18 | Nc1ccn(CCC[C@@H](N)CCCOCc2ccccc2)c(=O)n1 [Compound 119] | > 16 µg/mL
19 | N=C(N)NCCCCN[C@H](CCCCNC(=N)N)CCn1ccc(NC(N)=O)nc1=O [Compound 120] | > 16 µg/mL
20 | N=C(N)NCCC[C@H](N)CCCn1ccc(NC(N)=O)nc1=O [Compound 121] | > 16 µg/mL
21 | NCCC[C@H](N)CCCn1ccc(NC(N)=O)nc1=O [Compound 122] | > 16 µg/mL
22 | NC(=O)Nc1ccn(CCC[C@@H](N)CCCO)c(=O)n1 [Compound 123] | > 16 µg/mL
23 | N=C(N)NCCCC[C@@H](N)CCn1ccc(NC(N)=O)nc1=O [Compound 124] | > 16 µg/mL
24 | N=C(N)NCCCC[C@H](CCn1ccc(NC(N)=O)nc1=O)NCCCN [Compound 125] | > 16 µg/mL
25 | N=C(N)NCc1ccc(-n2ccc(NC(N)=O)nc2=O)cc1 [Compound 126] | > 16 µg/mL

Row | Compound | MIC
26 | N=C(N)NCc1ccc(-n2ccc(N)nc2=O)cc1 [Compound 127] | > 16 µg/mL
27 | NCCCCOc1nccc(N)n1 [Compound 128] | > 16 µg/mL
28 | NCCCCn1ccc(N)nc1=O [Compound 129] | > 16 µg/mL
29 | N=C(N)NCCC[C@@H](CCCn1ccc(NC(N)=O)nc1=O)NCCCN [Compound 130] | > 16 µg/mL
30 | NCCCNCc1ccc(-n2ccc(NC(N)=O)nc2=O)cc1 [Compound 131] | > 16 µg/mL
31 | NCCCNCc1ccc(-n2ccc(N)nc2=O)cc1 [Compound 132] | > 16 µg/mL
32 | N=C(N)NCCC[C@H](N)CCCn1cnc(NC(N)=O)nc1=O [Compound 133] | > 16 µg/mL
33 | N=C(N)NCCCCN[C@@H](CCCNC(=N)N)CCCn1ccc(NC(N)=O)nc1=O [Compound 134] | > 16 µg/mL
34 | NCCC[C@H](N)CCCN1CCC(NC(N)=O)NC1=O (stereo partly drawn) [Compound 135] | > 16 µg/mL
35 | NC(=O)NC1CCN(CCC[C@@H](N)CCCO)C(=O)N1 (stereo partly drawn) [Compound 136] | > 16 µg/mL
36 | NCCCNCc1ccc(-n2cc(F)c(N)nc2=O)cc1 [Compound 137] | > 16 µg/mL
37 | NCCCNCc1ccc(-n2cc(F)c(NC(N)=O)nc2=O)cc1 [Compound 138] | > 16 µg/mL
38 | NCc1ccc(-n2ccc(NC(N)=O)nc2=O)cc1 [Compound 139] | > 16 µg/mL
39 | NCc1cn(-c2ccc(-n3cnc(NC(N)=O)nc3=O)cc2)nn1 [Compound 140] | > 16 µg/mL
40 | N=C(N)NCc1cn(-c2ccc(-n3ccc(NC(N)=O)nc3=O)cc2)nn1 [Compound 141] | > 16 µg/mL
41 | NCCCN(CCCN)Cc1ccc(-n2cc(F)c(N)nc2=O)cc1 [Compound 143] | > 16 µg/mL
42 | NCCCNC(CCCN)c1ccc(-n2ccc(NC(N)=O)nc2=O)cc1 (stereo not drawn) [Compound 144] | > 16 µg/mL
43 | NCCCN(CCCN)Cc1ccc(-n2ccc(NC(N)=O)nc2=O)cc1 [Compound 145] | > 16 µg/mL
44 | NCCCC(N)c1ccc(-n2ccc(NC(N)=O)nc2=O)cc1 (stereo not drawn) [Compound 146] | > 16 µg/mL
45 | N=C(N)NCCC[C@@H](CCCn1ccc(NC(=O)NS(=O)(=O)c2ccc(F)cc2)nc1=O)NCCCN [Compound 147] | > 16 µg/mL
46 | N=C(N)NCCC[C@@H](CCCn1ccc(NC(=O)Nc2ccc(F)cc2)nc1=O)NCCCN [Compound 148] | > 16 µg/mL
47 | NCCCN(CCCN)Cc1ccc(-c2c[nH]c(NC(N)=O)nc2=O)cc1 [Compound 149] | > 16 µg/mL
48 | NC[C@@H](N)c1cn(-c2ccc(-n3ccc(NC(N)=O)nc3=O)cc2)nn1 [Compound 150] | > 16 µg/mL
49 | Cc1nc(-c2cccc(NC(=O)Nc3ccn(CCC[C@H](CCCNC(=N)N)NCCCN)c(=O)n3)c2)no1 [Compound 151] | > 16 µg/mL
50 | CN(C)c1ccc(NC(=O)Nc2ccn(CCC[C@H](CCCNC(=N)N)NCCCN)c(=O)n2)cc1 [Compound 152] | > 16 µg/mL

Row | Compound | MIC
51 | NCCN(CCN)CCCN1CC=C(n2ccc(NC(N)=O)nc2=O)CC1 [Compound 153] | > 16 µg/mL
52 | N=C(N)NCCC[C@@H](CCCn1ccc(NC(=O)c2ccc(Cl)cc2)nc1=O)NCCCN [Compound 155] | > 16 µg/mL
53 | N=C(N)NCC(NCCCN)c1ccc(-n2ccc(NC(N)=O)nc2=O)cc1 (stereo not drawn) [Compound 156] | > 16 µg/mL
54 | Cn1nnc2cc(C(=O)Nc3ccn(CCC[C@H](CCCNC(=N)N)NCCCN)c(=O)n3)ccc21 [Compound 157] | > 16 µg/mL
55 | Cc1c(C(=O)Nc2ccn(CCC[C@H](CCCNC(=N)N)NCCCN)c(=O)n2)ccn1-c1ccc(Cl)cc1 [Compound 158] | > 16 µg/mL
56 | N=C(N)NCCC[C@@H](CCCn1ccc(NC(=O)Nc2ccc(F)cc2F)nc1=O)NCCCN [Compound 159] | > 16 µg/mL
57 | N=C(N)NCCC[C@@H](CCCn1ccc(NC(=O)Nc2ccc(F)c(F)c2)nc1=O)NCCCN [Compound 160] | > 16 µg/mL
58 | NCC[C@H](N)C(=O)N1CCN(C2C=NC(NC(N)=O)=NC2=O)CC1 (stereo partly drawn) [Compound 161] | > 16 µg/mL
59 | NC[C@@H](N)C(=O)Nc1ccc(-c2c[nH]c(NC(N)=O)cc2=O)cc1 [Compound 162] | > 16 µg/mL
60 | Cn1ncc(C(=O)Nc2ccn(CCC[C@H](CCCNC(=N)N)NCCCN)c(=O)n2)c1Cl [Compound 163] | < 16 µg/mL
61 | N=C(N)NCCC[C@@H](CCCn1ccc(NC(=O)Nc2cc(F)c(F)cc2F)nc1=O)NCCCN [Compound 164] | > 16 µg/mL
62 | N=C(N)NCCC[C@@H](CCCn1ccc(NC(=O)Nc2ccc(C(F)(F)F)cc2)nc1=O)NCCCN [Compound 165] | > 16 µg/mL
63 | Cc1nc(-c2cccc(NC(=O)Nc3ccn(CCC[C@H](CCCNC(=N)N)NCCCN)c(=O)n3)c2)cs1 [Compound 166] | > 16 µg/mL
64 | Cc1nc(-c2cnccn2)sc1C(=O)Nc1ccn(CCC[C@H](CCCNC(=N)N)NCCCN)c(=O)n1 [Compound 167] | > 16 µg/mL
65 | N=C(N)NCCCN(CCCN)Cc1ccc(-c2c[nH]c(NC(N)=O)nc2=O)cc1 [Compound 168] | < 16 µg/mL
66 | N=C(N)NCCN(CCCN)Cc1ccc(-c2c[nH]c(NC(N)=O)nc2=O)cc1 [Compound 170] | > 16 µg/mL
67 | NCCCN(CCCN)Cc1ccc(-c2c[nH]c(NC(=O)Nc3ccc(F)c(F)c3)nc2=O)cc1 [Compound 171] | > 16 µg/mL
68 | NCCCN(CCCN)Cc1ccc(-c2c[nH]c(NC(=O)Nc3ccc(C(F)(F)F)cc3)nc2=O)cc1 [Compound 172] | < 16 µg/mL
69 | NCCCN(CCCN)Cc1ccc(-c2c[nH]c(NC(=O)c3ccc(Cl)cc3)nc2=O)cc1 [Compound 173] | > 16 µg/mL
70 | Cn1ncc(C(=O)Nc2nc(=O)c(-c3ccc(CN(CCCN)CCCN)cc3)c[nH]2)c1Cl [Compound 174] | > 16 µg/mL
71 | CSc1ccc(C(=O)Nc2ccn(CCCC(CCCNC(=N)N)NCCCN)c(=O)n2)cc1 (stereo not drawn) [Compound 175] | > 16 µg/mL
72 | CN(C)c1ccc(C(=O)Nc2ccn(CCCC(CCCNC(=N)N)NCCCN)c(=O)n2)cc1 (stereo not drawn) [Compound 176] | < 16 µg/mL
73 | COc1ccc(C(=O)Nc2ccn(CCCC(CCCNC(=N)N)NCCCN)c(=O)n2)cc1 (stereo not drawn) [Compound 177] | > 16 µg/mL
74 | NCCCN(CCCN)Cc1ccc(-c2c[nH]c(NC(=O)Nc3cc(F)c(F)cc3F)nc2=O)cc1 [Compound 178] | > 16 µg/mL

same assay, conditions: Escherichia coli, ATCC25922, read-out: E. coli ATCC25922 MIC

Row | Compound | MIC
75 | CN(C(=O)C[C@H](CCCNC(=N)N)NC(=O)CCCO)C1CNC(NC(N)=O)=NC1=O (stereo partly drawn) [Compound 101] | > 16 µg/mL
